From patent US4556715A, “Nicotinic acid derivatives” (Kyorin Pharmaceutical Co., Ltd., priority 1980, dated 1985)
Like-named read-outs stand apart in the source and are kept apart here.

Assays:
[1] = system: serum and liver lipid levels in rats; assay: Serum and liver lipid levels and relative liver weight in rats (100 mg/kg, 10 days); format: in vivo, Male rats of the Wistar strain; conditions: for response vs control in vivo at 100 mg/kg: Rattus norvegicus, po; for response vs control in vivo at 100 mg/kg / Relative liver weight, relative to Control (100): in parentheses, Control = (100); for Liver lipid levels Ch / Liver lipid levels PL / Liver lipid levels TG / Relative liver weight / Serum lipid levels Ch / Serum lipid levels PL / Serum lipid levels TG: 100 mg/kg p.o. 10 days, Mean ± S.E. (n = 9)
Experimental: (2) Male rats of the Wistar strain weighing 160-180 g were fed a stock deit (CE-2, Japan CLEA, Tokyo) and water ad libitum. The present compounds and KCD-232 were suspended, respectively, in a 0.5% of CMC solution and give orally to rats once a day at a dose of 100 mg/kg b.w. for 10 days.
Control rats were received the 0.5% CMC solution alone. The diet was withdrawn immediately after the last administration of compounds. Animals were sacrificed by decapitation 4 hr after the last administration and blood was collected, clotted and centrifuged to obtain serum. The liver was excised quickly and weighed. Total lipids were extracted from the serum and liver, and the levels of Ch, TG and PL were determined colorimetrically.

[2] = system: serum and liver lipid levels in normal rats; assay: Effects on relative liver weight, serum and liver lipid levels in normal rats (100 mg/kg, 7 days); format: in vivo, Male Wistar strain rats
Experimental: (1) Effects on relative liver weight, serum and liver lipid levels in normal rats
Male Wistar strain rats, weighing 180-210 g were orally administered the present compounds (X=Cl, n1 =2, 3, 4 and n2 =1) and 4-(4-chlorobenzyloxy)benzyl nicotinate (KCD-232), being X=Cl, n1 =1, n2 =1, respectively, which were suspended in 0.5% carboxymethyl cellulose (CMC) solution once a day at a dose of 100 mg/kg b.w. for 7 days. The last administration was occured in rats fasted overnight. At 4 hr later blood was withdrawn from jugular vein, clotted and centrifuged to obtain serum. The liver was rapidly removed and weighed. Total lipids were extracted from the serum and liver, and cholesterol (Ch), triglycerides (TG) and phospholipids (PL) levels were determined.

[3] = 240 h, Table 2, read-out: Liver lipid levels PL, relative to Control (100)
[4] = Table 2, read-out: Liver lipid levels Ch, relative to Control (100)
[5] = Table 2, read-out: Liver lipid levels TG, relative to Control (100)
[6] = Table 2, read-out: Serum lipid levels Ch, relative to Control (100)
[7] = Table 2, read-out: Serum lipid levels PL, relative to Control (100)
[8] = Table 2, read-out: Serum lipid levels TG, relative to Control (100)
[9] = 240 h, Table 3, read-out: Liver lipid levels PL, relative to Control (100)
[10] = Table 3, read-out: Liver lipid levels Ch, relative to Control (100)
[11] = Table 3, read-out: Liver lipid levels TG, relative to Control (100)
[12] = Table 3, read-out: Serum lipid levels Ch, relative to Control (100)
[13] = Table 3, read-out: Serum lipid levels PL, relative to Control (100)
[14] = Table 3, read-out: Serum lipid levels TG, relative to Control (100)
[15] = Table 1, 100 mg/kg p.o. 7 days, fasted overnight, mean ± S.E. (n = 6)
[16] = Table 1, in parentheses, Control = (100)

SMILES | response vs control in vivo at 100 mg/kg [1, 3] | response vs control in vivo at 100 mg/kg [1, 4] | response vs control in vivo at 100 mg/kg [1, 5] | response vs control in vivo at 100 mg/kg [1, 6] | response vs control in vivo at 100 mg/kg [1, 7] | response vs control in vivo at 100 mg/kg [1, 8] | Liver lipid levels Ch ([1]; Table 2) | Liver lipid levels PL ([1]; Table 2) | Liver lipid levels TG ([1]; Table 2) | Relative liver weight ([1]; Table 2) | Serum lipid levels Ch ([1]; Table 2) | Serum lipid levels PL ([1]; Table 2) | Serum lipid levels TG ([1]; Table 2) | Relative liver weight, relative to Control (100) ([1]; Table 2) | response vs control in vivo at 100 mg/kg [1, 9] | response vs control in vivo at 100 mg/kg [1, 10] | response vs control in vivo at 100 mg/kg [1, 11] | response vs control in vivo at 100 mg/kg [1, 12] | response vs control in vivo at 100 mg/kg [1, 13] | response vs control in vivo at 100 mg/kg [1, 14] | also measured
O=C(OCCCCc1ccc(OCCCCc2ccc(Cl)cc2)cc1)c1cccnc1 [n1=4, n2=4, 4-{4-[4-(4-Chlorophenyl)butoxy]phenyl}butyl nicotinate] | 107% | 79.3% | 112% | 70.8% | 69.2% | 31.5% | 2.41 ± 0.08 mg/g liver | 40.9 ± 0.4 mg/g liver | 7.11 ± 0.53 mg/g liver | 3.90 ± 0.06 g/100 g b.w. | 61.4 ± 3.2 mg/dL | 103 ± 4.4 mg/dL | 39 ± 3.2 mg/dL | 101 |  |  |  |  |  |  | 
O=C(OCCc1ccc(OCc2ccc(Cl)cc2)cc1)c1cccnc1 [n1=1, n2=2, 4-(4-Chlorobenzyloxy)phenethyl nicotinate] | 105% | 78.3% | 82.9% | 78.1% | 76.8% | 44.2% | 2.38 ± 0.10 mg/g liver | 39.9 ± 0.8 mg/g liver | 5.24 ± 0.36 mg/g liver | 4.10 ± 0.06 g/100 g b.w. | 67.7 ± 3.3 mg/dL | 114 ± 4.7 mg/dL | 54.7 ± 6.5 mg/dL | 106 | 104% | 106% | 79% | 70.9% | 64.7% | 27.3% | Liver lipid levels Ch ([1]; Table 3): 2.46 ± 0.14 mg/g liver; Liver lipid levels PL ([1]; Table 3): 37.5 ± 0.4 mg/g liver; Relative liver weight ([1]; Table 3): 3.80 ± 0.07 g/100 g b.w.; Serum lipid levels Ch ([1]; Table 3): 69.2 ± 3.9 mg/dL; Serum lipid levels PL ([1]; Table 3): 101 ± 4.5 mg/dL; Serum lipid levels TG ([1]; Table 3): 34.2 ± 2.9 mg/dL; Relative liver weight, relative to Control (100) ([1]; Table 3): 100
O=C(OCCc1ccc(OCCCCc2ccc(Cl)cc2)cc1)c1cccnc1 [n1=4, n2=2, 4-[4-(4-Chlorophenyl)butoxy]phenethyl nicotinate] |  |  |  |  |  |  |  |  |  |  |  |  |  |  | 109% | 98.3% | 79.7% | 74% | 67.1% | 24.9% | Liver lipid levels Ch ([1]; Table 3): 2.28 ± 0.09 mg/g liver; Liver lipid levels PL ([1]; Table 3): 39.6 ± 0.9 mg/g liver; Liver lipid levels TG ([1]; Table 3): 5.72 ± 0.40 mg/g liver; Relative liver weight ([1]; Table 3): 4.03 ± 0.07 g/100 g b.w.; Serum lipid levels Ch ([1]; Table 3): 72.2 ± 1.3 mg/dL; Serum lipid levels PL ([1]; Table 3): 104 ± 3.7 mg/dL; Serum lipid levels TG ([1]; Table 3): 31.3 ± 3.6 mg/dL; Relative liver weight, relative to Control (100) ([1]; Table 3): 106
O=C(OCc1ccc(OCCc2ccc(Cl)cc2)cc1)c1cccnc1 [n1=2, n2=1, 4-[2-(4-Chlorophenyl)ethoxy]benzyl nicotinate] | 102% | 96.7% | 87% | 76.7% | 74% | 44% | 2.94 ± 0.07 mg/g liver | 39.0 ± 0.7 mg/g liver | 5.50 ± 0.59 mg/g liver | 3.98 ± 0.06 g/100 g b.w. | 66.5 ± 2.2 mg/dL | 110 ± 3.7 mg/dL | 54.4 ± 5 mg/dL | 103 |  |  |  |  |  |  | serum Ch, TG and PL (in words) ([2]; 100 mg/kg p.o. 7 days, compared with control): significantly reduced serum Ch, TG and PL; Liver lipid levels Ch [2, 15]: 3.78 ± 0.10 mg/g liver; Liver lipid levels PL [2, 15]: 37.2 ± 1.5 mg/g liver; Liver lipid levels TG [2, 15]: 11.49 ± 1.65 mg/g liver; Serum lipid levels Ch [2, 15]: 53.5 ± 2.2 mg/dL; Serum lipid levels PL [2, 15]: 69 ± 2.7 mg/dL; Serum lipid levels TG [2, 15]: 22.4 ± 4.3 mg/dL; Relative liver weight ([2]; Table 1, 100 mg/kg p.o. 7 days, mean ± S.E. (n = 6)): 3.17 ± 0.10 g/100 g b.w.; Liver lipid levels Ch, relative to Control (100) [2, 16]: 107; Liver lipid levels PL, relative to Control (100) [2, 16]: 101; Liver lipid levels TG, relative to Control (100) [2, 16]: 156; Relative liver weight, relative to Control (100) [2, 16]: 103; Serum lipid levels Ch, relative to Control (100) [2, 16]: 70; Serum lipid levels PL, relative to Control (100) [2, 16]: 68; Serum lipid levels TG, relative to Control (100) [2, 16]: 66
